The values below come from US20260191766A1, “USE OF CONDITIONED MEDIUM DERIVED FROM CULTIVATION OF MESENCHYMAL STEM CELLS OF THE UMBILICAL CORD FOR INDUCING, STIMULATING AND PROMOTING HAIR GROWTH AND REGENERATION” (CELLRESEARCH CORPORATION PTE. LTD., priority 2022, published 2026).

In test [1] the test system is human follicle dermal papilla cells (HFDPC). Description: growth promotion on cultured human follicle dermal papilla cells (WST-8). It is filed as cell-based. An excerpt: Hair growth is controlled by a unique repetitive cycle comprised of anagen, catagen and telogen phases. Dermal papilla cells (DPCs), a group of specialized fibroblasts within the hair follicle bulb, have an essential function in the control of hair growth not only in the normal hair cycle but also in the pathogenesis of certain conditions, for example in androgenetic alopecia. Therefore, factors affecting the functions of DPCs in hair loss are of great importance from the therapeutic viewpoint. […] HFDPCs are either treated with different concentrations of Minodixil (0.0125-200 μg/mL; see Table 3, left column, serving as the reference) or conditioned medium of the invention at different dilutions (PC, dilution range from 10-1280 times; see third column of Table 3). The negative control (NC) refers to HFDPCs incubated with basal medium only. All data are shown as the mean±standard deviation (SD). For comparison of different treatments between 2 groups, the Student's t test was used. p<0.05 was considered significant, p<0.01 would normally be considered highly significant, and p<0.001 extremely significant. After calculation, p is 0.03.
(Tetrazolium dyes change colour on reduction, which living cells bring about.)

Test [2] has as its system COVID-19-induced scalp alopecia (telogen effluvium). Briefly: Example 8: case study, COVID-19-induced telogen effluvium. It is filed as in vivo, human. The following applies: same patient; minoxidil and LED light treatment (Hairmax). The procedure: COVID-19-induced scalp Alopecia can induce telogen effluvium (TE) which refers to diffuse scalp alopecia. A patient with severe chronic TE with no spontaneous recovery after 6 months of hair loss and no response to conventional treatment of minoxidil and LED light treatment (Hairmax) was treated with a composition comprising conditioned medium derived from cultivation of mesenchymal stem cells of the umbilical cord (CALECIM® Advanced Hair System).
The scalp of the patient was progressively treated with rubbing with an alcohol swab, then 1 ml of a composition comprising conditioned medium derived from cultivation of mesenchymal stem cells of the umbilical cord was applied and massaged in till dry. The patient was advised to wait until evening to wash their hair. Five treatments of conditioned medium derived from cultivation of mesenchymal stem cells of the umbilical cord spaced a month apart were administered.

The test system of another test is elastin mRNA in HDFs. Particulars: 24 hours, 1 ng/ml; cited from earlier work.

In the case of `Nc1cc(N2CCCCC2)nc(N)[n+]1[O-]` [Minoxidil], the “cell count of HFDPC (% of control)” value in test [1] (Minoxidil 0.0125 ug/mL) is 94 ± 0.6 % of control; in test [1] (Minoxidil 0.025 ug/mL), 92.2 ± 1.4 % of control; in test [1] (Minoxidil 0.05 ug/mL) it was 120.8 ± 4.8 % of control; in test [1] (Minoxidil 0.1 ug/mL), 120.8 ± 8.8 % of control; in test [1] (Minoxidil 0.2 ug/mL), 123.2 ± 8.4 % of control; in test [1] (Minoxidil 2 ug/mL), 124.5 ± 10.2 % of control. The “cell count of HFDPC (% of control)” value is 98.5 ± 7.7 % of control in test [1] (Minoxidil 20 ug/mL) and 43 ± 2.6 % of control in test [1] (Minoxidil 200 ug/mL). For the same molecule, in test [1] (diluted 320 times), the “more cells compared to negative control” value is “around 20%”. For the same molecule, in test [2], the “response to conventional treatment before the study treatment” value is recorded as “no response”.
On to “TGF-β1: transforming growth factor, literature data”, for which the “maximum increase of elastin mRNA steady-state levels” value in the test on elastin mRNA in HDFs is recorded as 30 fold.

B1: TGF-β2: transforming growth factor, literature data (protein, UniProt P61812 303-414, looked up)
Transforming growth factor …: ALDAAYCFRNVQDNCCLRPLYIDFKRDLGWKWIHEPKGYNANFCAGACPYLWSSDTQHSRVLSLYNTINPEASASPCCVSQDLEPLTILYYIGKTPKIEQLSNMIVKSCKCS
For the molecule B1, in the test on elastin mRNA in HDFs, the “maximum increase of elastin mRNA steady-state levels” value is 30 fold.
